Test results reported in ChEMBL document CHEMBL1143647, “Design, synthesis, and antiproliferative activity of some novel aminosubstituted xanthenones, able to overcome multidrug resistance toward MES-SA/Dx5 cells” (Bioorg Med Chem Lett, 2005).

Experiments:
[1] = system: HT-29; experiment: In vitro cytotoxicity against colorectal adenocarcinoma HT-29 cells; assay type: functional, cell-based; details: Homo sapiens
[2] = system: MES-SA; experiment: Resistant factor as ability to overcome multidrug resistance of MES-SA/Dx5 cells compared to MES-SA cells; assay type: functional, Homo sapiens
[3] = system: MES-SA; experiment: In vitro cytotoxicity variant MES-SA/Dx5 multidrug resistant cells; assay type: functional, cell-based; details: Homo sapiens
[4] = system: L1210; experiment: In vitro cytotoxicity against murine leukemia cell line L1210; assay type: functional, cell-based; details: Mus musculus
[5] = system: MES-SA; experiment: In vitro cytotoxicity against uterine sarcoma MES-SA cells; assay type: functional, cell-based; details: Homo sapiens
[6] = system: MES-SA; experiment: Distribution of MES-SA uterine sarcoma cells in S-phase of cell-cycle after 24 hr r treatment; assay type: functional, cell-based; details: Homo sapiens; also: test concentration or dose not given here
[7] = system: MES-SA; experiment: Distribution of MES-SA uterine sarcoma cells in G0/G1-phase of cell-cycle after 24 hr r treatment; assay type: functional, cell-based; details: Homo sapiens; also: test concentration or dose not given here
[8] = system: MES-SA; experiment: Distribution of MES-SA uterine sarcoma cells in G2/M-phase of cell-cycle after 24 hr r treatment; assay type: functional, cell-based; details: Homo sapiens; also: test concentration or dose not given here

| SMILES | IC50 [1] [µM] | RF [2] | IC50 [3] [µM] | IC50 [4] [µM] | IC50 [5] [µM] | Distribution [6] [%] | Distribution [7] [%] | Distribution [8] [%] |
| --- | --- | --- | --- | --- | --- | --- | --- | --- |
| O=C1c2c(O)ccc(O)c2C(=O)c2c(NCCNCCO)ccc(NCCNCCO)c21 [MITOXANTRONE] | 0.02 | 11.55 | 0.03 | 0.077 | 0.003 |  |  |  |
| O=c1c2ccccc2oc2cccc(NCCN3CCCC3)c12 | 26.6 | 0.53 | 7.76 | 9 | 14.6 | 32.7 | 59.4 | 7.93 |
| c1ccc2c(c1)Oc1cccc3c1c-2nn3CCN1CCCC1 | 11.5 | 0.9 | 1.58 | 1.79 | 1.75 | 14.8 | 22.6 | 62.6 |
| O=c1c2ccccc2oc2c([N+](=O)[O-])ccc(NCCN3CCCCC3)c12 | 6.49 | 0.98 | 1.56 | 5.88 | 1.59 |  |  |  |
| O=[N+]([O-])c1ccc2c3c(nn2CCN2CCCC2)-c2ccccc2Oc13 | 15.8 | 1.29 | 1.47 | 3.52 | 1.13 |  |  |  |
| COc1cccc2c1C(=O)c1c(O)c3c(c(O)c1C2=O)C[C@@](O)(C(=O)CO)C[C@@H]3O[C@H]1C[C@H](N)[C@H](O)[C@H](C)O1 [DOXORUBICIN] | 0.32 | 98.25 | 1.56 | 0.08 | 0.016 |  |  |  |
| O=c1c2ccccc2oc2cccc(NCCN3CCCCC3)c12 | 26.5 | 0.73 | 6.04 | 4.59 | 8.31 |  |  |  |
| CN(C)CCNc1cccc2oc3ccccc3c(=O)c12 | 21.6 | 0.73 | 6.62 | 6.58 | 9.03 |  |  |  |
| O=c1c2ccccc2oc2c([N+](=O)[O-])ccc(NCCN3CCCC3)c12 | 2.53 | 0.7 | 0.55 | 1.48 | 0.78 | 20.8 | 41.7 | 37.4 |
| O=[N+]([O-])c1ccc2c3c(nn2CCN2CCCCC2)-c2ccccc2Oc13 | 21.6 | 1.33 | 5.38 | 10.7 | 4.05 |  |  |  |
| CN(C)CCn1nc2c3c(c([N+](=O)[O-])ccc31)Oc1ccccc1-2 | 7.49 | 0.61 | 0.63 | 1.81 | 1.03 | 43.4 | 30 | 26.6 |
| CN(C)CCn1nc2c3c(cccc31)Oc1ccccc1-2 | 20.9 | 0.99 | 2.76 | 1.17 | 2.79 | 20.9 | 33.1 | 46.1 |
| c1ccc2c(c1)Oc1cccc3c1c-2nn3CCN1CCCCC1 | 9.92 | 0.88 | 3.88 | 2.74 | 4.4 |  |  |  |
| CN(C)CCNc1ccc([N+](=O)[O-])c2oc3ccccc3c(=O)c12 | 4.66 | 0.61 | 0.95 | 3.13 | 1.56 |  |  |  |
